Source: ChEMBL document CHEMBL3885881, “DrugMatrix”

Species: Rattus norvegicus
Assay: DrugMatrix - Regimen: Daily Repeat
Format: toxicity, organism-based, Sprague-Dawley
Design: regimen Daily Repeat, gender Male, age 6-8 weeks
Conditions: in vivo, po, route oral GAVAGE, vehicle 100 % WATER; for ABSOLUTE BASOPHIL / ABSOLUTE EOSINOPHIL / ABSOLUTE LYMPHOCYTE / ABSOLUTE MONOCYTE / ABSOLUTE SEGMENTED NEUTROPHIL / BASOPHIL / EOSINOPHIL / ERYTHROCYTE COUNT / HEMATOCRIT / HEMOGLOBIN / LEUKOCYTE COUNT / LYMPHOCYTE / MEAN CORPUSCULAR HEMOGLOBIN / MEAN CORPUSCULAR HEMOGLOBIN CONCENTRATION / MEAN CORPUSCULAR VOLUME / MONOCYTE / NEUTROPHIL / NUCLEATED RED BLOOD CELLS / PLATELET COUNT: tissue Blood; for ALANINE AMINOTRANSFERASE / ALBUMIN / ALKALINE PHOSPHATASE / ASPARTATE AMINOTRANSFERASE / BLOOD UREA NITROGEN / CARBON DIOXIDE / CHLORIDE / CHOLESTEROL / CREATINE PHOSPHOKINASE / CREATININE / GLUCOSE / LACTATE DEHYDROGENASE / LIPASE / PHOSPHORUS / POTASSIUM / SODIUM / TOTAL BILIRUBIN / TOTAL PROTEIN / URIC ACID: tissue Plasma
[1] = 0 mg/kg, 72 h, dose level Control, time 3 day
[2] = 0 mg/kg, 120 h, dose level Control, time 5 day
[3] = 56 mg/kg, 72 h, dose level Low, time 3 day

With `CC[C@H]1OC(=O)[C@H](C)[C@@H](O[C@H]2C[C@@](C)(OC)[C@@H](O)[C@H](C)O2)[C@H](C)[C@@H](O[C@@H]2O[C@H](C)C[C@H](N(C)C)[C@H]2O)[C@](C)(OC)C[C@@H](C)C(=O)[C@H](C)[C@@H](O)[C@]1(C)O` [CLARITHROMYCIN] the “ABSOLUTE BASOPHIL” value [1] was 0 CELLS/uL, the “ABSOLUTE EOSINOPHIL” value [1] was 91.5 CELLS/uL and the “ABSOLUTE LYMPHOCYTE” value [1] was 14108.83 CELLS/uL. The “ABSOLUTE MONOCYTE” value [1] was 81 CELLS/uL, the “ABSOLUTE SEGMENTED NEUTROPHIL” value [1] was 818.67 CELLS/uL and the BASOPHIL [1] was 0%. For the same molecule, the EOSINOPHIL [1] was 0.67%, the “ERYTHROCYTE COUNT” value [1] was 5.56 x10E6/uL and the HEMATOCRIT [1] was 34.5%. For the same molecule, the HEMOGLOBIN [1] was 13.45 G/DL, the “LEUKOCYTE COUNT” value [1] was 15.1 x10E3/uL and the LYMPHOCYTE [1] was 93%. For the same molecule, the “MEAN CORPUSCULAR HEMOGLOBIN” value [1] was 24.2 pg, the “MEAN CORPUSCULAR HEMOGLOBIN CONCENTRATION” value [1] was 38.98 G/DL and the “MEAN CORPUSCULAR VOLUME” value [1] was 62.07 fL. The MONOCYTE [1] was 0.5%, the NEUTROPHIL [1] was 5.83% and the “NUCLEATED RED BLOOD CELLS” value [1] was 0 /100WBC. The “PLATELET COUNT” value [1] was 1193.33 x10E3/uL, the “ALANINE AMINOTRANSFERASE” value [1] was 60.33 u/L and the ALBUMIN [1] was 4 G/DL. For the same molecule, the “ALKALINE PHOSPHATASE” value [1] was 334.83 u/L, the “ASPARTATE AMINOTRANSFERASE” value [1] was 74.5 u/L and the “BLOOD UREA NITROGEN” value [1] was 13.5 mg/dL. For the same molecule, the “CARBON DIOXIDE” value [1] was 30.33 mmol/L, the CHLORIDE [1] was 98.33 MEQ/L and the CHOLESTEROL [1] was 71.17 mg/dL. The “CREATINE PHOSPHOKINASE” value [1] was 212 u/L, the CREATININE [1] was 0.21 mg/dL and the GLUCOSE [1] was 173.17 mg/dL. The “LACTATE DEHYDROGENASE” value [1] was 101.5 u/L, the LIPASE [1] was 24.17 u/L and the PHOSPHORUS [1] was 10.87 mg/dL. The POTASSIUM [1] was 6.06 MEQ/L, the SODIUM [1] was 140.58 MEQ/L and the “TOTAL BILIRUBIN” value [1] was 0.17 mg/dL. The “TOTAL PROTEIN” value [1] was 5.9 G/DL, the “URIC ACID” value [1] was 1.23 mg/dL and the “ABSOLUTE BASOPHIL” value [2] was 0 CELLS/uL. For the same molecule, the “ABSOLUTE EOSINOPHIL” value [2] was 34.5 CELLS/uL, the “ABSOLUTE LYMPHOCYTE” value [2] was 8181 CELLS/uL and the “ABSOLUTE MONOCYTE” value [2] was 82.67 CELLS/uL. The “ABSOLUTE SEGMENTED NEUTROPHIL” value [2] was 435.17 CELLS/uL, the BASOPHIL [2] was 0% and the EOSINOPHIL [2] was 0.5%. For the same molecule, the “ERYTHROCYTE COUNT” value [2] was 5.31 x10E6/uL, the HEMATOCRIT [2] was 33.83% and the HEMOGLOBIN [2] was 13.37 G/DL. For the same molecule, the “LEUKOCYTE COUNT” value [2] was 8.73 x10E3/uL, the LYMPHOCYTE [2] was 93.5% and the “MEAN CORPUSCULAR HEMOGLOBIN” value [2] was 25.2 pg. The “MEAN CORPUSCULAR HEMOGLOBIN CONCENTRATION” value [2] was 39.53 G/DL, the “MEAN CORPUSCULAR VOLUME” value [2] was 63.73 fL and the MONOCYTE [2] was 1%. The NEUTROPHIL [2] was 5%, the “NUCLEATED RED BLOOD CELLS” value [2] was 0 /100WBC and the “PLATELET COUNT” value [2] was 1057.33 x10E3/uL. The “ALANINE AMINOTRANSFERASE” value [2] was 54.33 u/L, the ALBUMIN [2] was 4.07 G/DL and the “ALKALINE PHOSPHATASE” value [2] was 308.67 u/L. For the same molecule, the “ASPARTATE AMINOTRANSFERASE” value [2] was 83.17 u/L, the “BLOOD UREA NITROGEN” value [2] was 14 mg/dL and the “CARBON DIOXIDE” value [2] was 34 mmol/L. The CHLORIDE [2] was 98 MEQ/L, the CHOLESTEROL [2] was 71.33 mg/dL and the “CREATINE PHOSPHOKINASE” value [2] was 266.5 u/L. For the same molecule, the CREATININE [2] was 0.27 mg/dL, the GLUCOSE [2] was 133 mg/dL and the “LACTATE DEHYDROGENASE” value [2] was 127 u/L. It also gave an LIPASE [2] of 11.67 u/L, a PHOSPHORUS [2] of 10.6 mg/dL and a POTASSIUM [2] of 6.17 MEQ/L. For the same molecule, the SODIUM [2] was 142.68 MEQ/L, the “TOTAL BILIRUBIN” value [2] was 0.15 mg/dL and the “TOTAL PROTEIN” value [2] was 6.03 G/DL. For the same molecule, the “URIC ACID” value [2] was 0.75 mg/dL, the “ABSOLUTE BASOPHIL” value [3] was 0 CELLS/uL and the “ABSOLUTE EOSINOPHIL” value [3] was 59.33 CELLS/uL. The “ABSOLUTE LYMPHOCYTE” value [3] was 13806.33 CELLS/uL, the “ABSOLUTE MONOCYTE” value [3] was 0 CELLS/uL and the “ABSOLUTE SEGMENTED NEUTROPHIL” value [3] was 1301 CELLS/uL. The BASOPHIL [3] was 0%, the EOSINOPHIL [3] was 0.33% and the “ERYTHROCYTE COUNT” value [3] was 5.56 x10E6/uL. For the same molecule, the HEMATOCRIT [3] was 35.47%, the HEMOGLOBIN [3] was 13.53 G/DL and the “LEUKOCYTE COUNT” value [3] was 15.17 x10E3/uL. The LYMPHOCYTE [3] was 91.67%, the “MEAN CORPUSCULAR HEMOGLOBIN” value [3] was 24.37 pg and the “MEAN CORPUSCULAR HEMOGLOBIN CONCENTRATION” value [3] was 38.2 G/DL. The “MEAN CORPUSCULAR VOLUME” value [3] was 63.77 fL, the MONOCYTE [3] was 0% and the NEUTROPHIL [3] was 8%. The “NUCLEATED RED BLOOD CELLS” value [3] was 0 /100WBC, the “PLATELET COUNT” value [3] was 1156.33 x10E3/uL and the “ALANINE AMINOTRANSFERASE” value [3] was 46.33 u/L. The ALBUMIN [3] was 4.03 G/DL, the “ALKALINE PHOSPHATASE” value [3] was 259.67 u/L and the “ASPARTATE AMINOTRANSFERASE” value [3] was 70.67 u/L. The “BLOOD UREA NITROGEN” value [3] was 12.33 mg/dL, the “CARBON DIOXIDE” value [3] was 30.33 mmol/L and the CHLORIDE [3] was 99.67 MEQ/L. The CHOLESTEROL [3] was 68.33 mg/dL, the “CREATINE PHOSPHOKINASE” value [3] was 185.33 u/L and the CREATININE [3] was 0.19 mg/dL. For the same molecule, the GLUCOSE [3] was 143.67 mg/dL, the “LACTATE DEHYDROGENASE” value [3] was 137.33 u/L and the LIPASE [3] was 10.67 u/L. It also gave a PHOSPHORUS [3] of 10.87 mg/dL, a POTASSIUM [3] of 6.51 MEQ/L and an SODIUM [3] of 141.97 MEQ/L. For the same molecule, the “TOTAL BILIRUBIN” value [3] was 0.2 mg/dL, the “TOTAL PROTEIN” value [3] was 5.93 G/DL and the “URIC ACID” value [3] was 1.4 mg/dL.
